Reference: article PMC7045412, “Natural biased signaling of hydroxycarboxylic acid receptor 3 and G protein-coupled receptor 84” (Cell Communication and Signaling : CCS, 2020)

Tests used:
[1] = target: G protein-coupled receptor 84 (GPR84) (Homo sapiens, UniProt Q9NQS5); test: cAMP inhibition, DMR and ERK assays in receptor-transfected CHO-K1/HEK293-T cells; assay type: cell-based
[2] = target: T1, hydroxycarboxylic acid receptor 3 (HCA3) (Homo sapiens, UniProt P49019); test: DMR ([…]) in receptor-transfected CHO-K1 cells; assay type: cell-based
T1 construct: gene HCAR3
T1 sequence (P49019 whole entry): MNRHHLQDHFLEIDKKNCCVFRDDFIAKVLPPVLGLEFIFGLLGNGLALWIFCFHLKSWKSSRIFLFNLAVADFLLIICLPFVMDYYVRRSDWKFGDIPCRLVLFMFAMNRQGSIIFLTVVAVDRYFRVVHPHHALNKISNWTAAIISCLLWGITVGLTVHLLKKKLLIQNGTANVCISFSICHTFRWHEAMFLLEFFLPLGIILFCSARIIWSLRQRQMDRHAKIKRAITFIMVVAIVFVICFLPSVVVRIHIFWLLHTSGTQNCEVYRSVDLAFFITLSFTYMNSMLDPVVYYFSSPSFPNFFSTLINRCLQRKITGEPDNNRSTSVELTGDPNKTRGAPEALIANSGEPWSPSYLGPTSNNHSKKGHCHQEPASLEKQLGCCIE

G protein-coupled receptor 84 (GPR84), sequence (Q9NQS5 whole entry): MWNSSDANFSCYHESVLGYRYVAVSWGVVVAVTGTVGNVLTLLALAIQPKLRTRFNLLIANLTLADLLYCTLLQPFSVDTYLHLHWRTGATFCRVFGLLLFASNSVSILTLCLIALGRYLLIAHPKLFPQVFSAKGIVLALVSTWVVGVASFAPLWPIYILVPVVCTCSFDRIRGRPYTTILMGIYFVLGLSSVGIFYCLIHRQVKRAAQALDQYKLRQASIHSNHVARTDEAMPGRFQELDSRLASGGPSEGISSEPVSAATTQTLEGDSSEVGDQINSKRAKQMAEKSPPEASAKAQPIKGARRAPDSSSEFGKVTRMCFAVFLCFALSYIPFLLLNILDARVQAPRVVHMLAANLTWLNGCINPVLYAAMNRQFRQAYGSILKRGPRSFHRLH

Structure (SMILES)	EC50 [1]	DMR (250 μM) in receptor-transfected CHO-K1 cells [2]
CCCCCCCCCC(=O)O [C10, decanoic acid]	C10 and 3HDec activated GPR84.	–
N[C@H](Cc1ccccc1)C(=O)O [D-Phe, D-phenylalanine]	–	dynasore affected the DMR-response of human and gorilla HCA3 to D-Phe and L-PLA in a similar manner
CCCCCCCC(O)CC(=O)O (stereo not drawn) [3HDec, 3-hydroxydecanoic acid]	In contrast, C10 and 3HDec but not 3HO activated GPR84	–
